In patent publication US4207339A, “Anti-ulcer pharmaceutical composition containing inositol hexasulfate or an alkaline metal salt thereof as active ingredient” (Mitsui Toatsu Chemicals, Incorporated, priority 1978, dated 1980):
Where a name gives a salt, the structure may show the parent alone. Read-outs that look alike come from different tables or passages of the source.

Legend:
[1] = tested on: Shay's Ulcer; test: Anti-ulcer effect: Shay's ulcer (pyloric ligation); format: in vivo, Male rats of the Wistar strain; details: p.o., 12 hours, vs control U.I.
Experimental: (§1) The anti-ulcer effect of some compounds of this invention was evaluated with regard to various types of experimental gastric and duodenal ulcers. The method of evaluation for each type of ulcer is outlined below.
Male rats of the Wistar strain, 7 or 8 weeks of age, were used in groups of ten. After 48 hours of fasting, the pyloric part of the stomach was ligated under ether anesthesia. Immediately after the operation, a certain amount of a compound to be tested was orally administered to each animal of a group. After 12 hours, the degree of ulceration occurring in the anterior part of the stomach was rated and regarded as an ulcer index (U.I.). Control rats were treated in the same manner as described above, except that they received no compounds to be tested. The results given in Table 1 are expressed in terms of the percentage of inhibition based on the U.I. obtained in the control group.

[2] = tested on: Stress Ulcer; test: Anti-ulcer effect: stress ulcer; format: in vivo, Male rats of the Wistar strain; details: p.o., stress for 16 hours, vs control U.I.
Experimental: as §1
Male rats of the Wistar strain, 8 weeks of age, were used in groups of ten. Each animal was immobilized in a stressing cage as developed by Takagi et al., immersed in water at 23° C. to the level of the xiphoid process, and thereby subjected to stress for 16 hours. Thereafter, the stomach was excised. The length of the ulcer formed in the glandular part of the stomach was measured and regarded as an ulcer index (U.I.). A certain amount of a compound to be tested was orally administered just before subjecting the animal to stress. The results are also expressed in terms of the percentage of inhibition based on the U.I. obtained in the control group receiving no compounds to be tested.

[3] = tested on: Aspirin Ulcer; test: Anti-ulcer effect: aspirin ulcer; format: in vivo, Male rats of the Donryu strain; details: p.o., aspirin 250 mg/kg, 6 hours
Experimental: as §1
Male rats of the Donryu strain, 10 to 11 weeks of age, were used in groups of ten. After 24 hours of fasting, a certain amount of a compound to be tested was orally administered to each animal of a group. Ten minutes later, aspirin was orally administered in a dose of 250 mg/kg. After 6 hours, the size of the ulcer formed in the glandular part of the stomach was rated by visual inspection and regarded as an ulcer index (U.I.). The results are also expressed in terms of the percentage of inhibition based on the U.I. obtained in the control group receiving no compounds to be tested.

[4] = tested on: Acetic Acid Ulcer; test: Anti-ulcer effect: acetic acid ulcer; format: in vivo, Male rats of the Wistar strain; details: p.o., twice a day for 7 days
Experimental: as §1
Male rats of the Wistar strain, 6 weeks of age, were used in groups of ten. Under ether anesthesia, each animal was laparotomized, a round frame (with an inside diameter of 5 mm) made of stainless steel was applied to the anterior wall of the stomach, and 100% acetic acid was poured into the frame. After 30 seconds, the acetic acid was removed and the abdomen was closed. Starting on the 7th day after the operation, a certain amount of a compound to be tested was orally administered twice a day to each animal of a group for a period of 7 days. Thereafter, the degree of healing of the ulcer was rated by visual inspection and regarded as an ulcer index (U.I.). The results are also expressed in terms of the percentage of healing based on the U.I. obtained in the control group receiving no compounds to be tested.

[5] = tested on: Gastric Juice Secretion; test: Effect on gastric juice secretion (pyloric ligation); format: in vivo, Male rats of the Donryu strain; details: 250 mg/kg, p.o.; 4 hours; control 4.9 ± 0.4; significant at 5% level
Experimental: (§2) Male rats of the Donryu strain, 11 weeks of age, were used in groups of ten. After 24 hours of fasting, the pyloric part of the stomach was ligated. Four hours later, the gastric juice was collected and its volume was measured. Then, its acidity was determined by titrating an aliquot of the gastric juice with 0.05 N sodium hydroxide. Further, the activity of pepsin was determined by Anson's method. A definite amount (250 mg/kg) of a compound to be tested was orally administered immediately after the pyloric ligation.

[6] = tested on: Gastric Juice Acidity; test: Effect on gastric juice acidity (pyloric ligation, titration with 0.05 N sodium hydroxide); format: in vivo, Male rats of the Donryu strain; details: 250 mg/kg, p.o.; 4 hours; control 92.5 ± 3.7; significant at 5% level
Experimental: as §2

[7] = tested on: pepsin; test: Effect on pepsin activity (pyloric ligation, Anson's method); format: in vivo, Male rats of the Donryu strain; details: 250 mg/kg, p.o.; 4 hours; control 7.4 ± 0.5; significant at 1% level
Experimental: as §2

[8] = tested on: Cysteamine Duodenal Ulcer; test: Anti-ulcer effect: cysteamine duodenal ulcer; format: in vivo, Male rats of the Donryu strain; details: p.o., cysteamine hydrochloride 400 mg/kg, 18 hours
Experimental: as §1
(iv) Cysteamine Duodenal Ulcer
Male rats of the Donryu strain, 10 or 11 weeks of age, were used in groups of ten. After 24 hours of fasting, a certain amount of a compound to be tested was orally administered to each animal of a group. Thirty minutes later, cysteamine hydrochloride was orally administered in a dose of 400 mg/kg. After 18 hours, the product of the maximum and minimum diameters of the ulcer formed in the duodenum was determined and regarded as an ulcer index (U.I.). The results are also expressed in terms of the percentage of inhibition based on the U.I. obtained in the control group receiving no compounds to be tested.

[9] = tested on: Mouse; details: 7 days observation
Experimental: Male and female mice of the dd Y strain, 4 weeks of age, as well as male and female rats of the rats of the Wistar strain, 7 weeks of age, were used in groups of ten. They were preliminarily raised for a week. Then, a compound to be tested (sodium salt) was dissolved in physiological saline solution and administered orally or subcutaneously. In the case of oral administration, the highest possible doses of 0.2 ml/10 g for mice and 2 ml/100 g for rats were used which both corresponded to 5,000 mg/kg. In the case of subcutaneous administration, the doses were reduced to 1/2. […] The animals that died during this period of observation were subjected to post-mortem examination.

[10] = tested on: Rat; test: Acute toxicity in rats; format: in vivo, Male and female rats of the Wistar strain; details: 7 days observation
Excerpt: They were preliminarily raised for a week.

O=S(=O)(O)OC1C(OS(=O)(=O)O)C(OS(=O)(=O)O)C(OS(=O)(=O)O)C(OS(=O)(=O)O)C1OS(=O)(=O)O (stereo not shown) [Potassium Salt, inositol hexasulfate potassium salt]
percentage of inhibition (Shay's Ulcer) ([1]; 100 mg/kg): 85 percentage of inhibition | percentage of inhibition (Shay's Ulcer) ([1]; 250 mg/kg): 80 percentage of inhibition | percentage of inhibition (Stress Ulcer) ([2]; 250 mg/kg): 25 percentage of inhibition | percentage of inhibition (Aspirin Ulcer) ([3]; 100 mg/kg): 46 percentage of inhibition | percentage of inhibition (Aspirin Ulcer) ([3]; 250 mg/kg): 40 percentage of inhibition | percentage of healing (Acetic Acid Ulcer) ([4]; 100 mg/kg): 28 percentage of healing | percentage of healing (Acetic Acid Ulcer) ([4]; 250 mg/kg): 22 percentage of healing | Amount of Gastric Juice Secreted [5]: 3.5 ± 0.4 mL | Acidity of Gastric Juice [6]: 60.2 ± 11.8 mEq/l | Activity of Pepsin [7]: 5.2 ± 0.4 mg/mL

O=S(=O)([O-])OC1C(OS(=O)(=O)[O-])C(OS(=O)(=O)[O-])C(OS(=O)(=O)[O-])C(OS(=O)(=O)[O-])C1OS(=O)(=O)[O-].[Na+].[Na+].[Na+].[Na+].[Na+].[Na+] (stereo not shown) [Sodium Salt, inositol hexasulfate sodium salt]
percentage of inhibition (Shay's Ulcer) ([1]; 50 mg/kg): 74 percentage of inhibition | percentage of inhibition (Shay's Ulcer) ([1]; 100 mg/kg): 92 percentage of inhibition | percentage of inhibition (Shay's Ulcer) ([1]; 250 mg/kg): 77 percentage of inhibition | percentage of inhibition (Stress Ulcer) ([2]; 250 mg/kg): 27 percentage of inhibition | percentage of inhibition (Stress Ulcer) ([2]; 500 mg/kg): 50 percentage of inhibition | percentage of inhibition (Aspirin Ulcer) ([3]; 50 mg/kg): 11 percentage of inhibition | percentage of inhibition (Aspirin Ulcer) ([3]; 100 mg/kg): 44 percentage of inhibition | percentage of inhibition (Aspirin Ulcer) ([3]; 250 mg/kg): 48 percentage of inhibition | percentage of inhibition (Cysteamine Duodenal Ulcer) ([8]; 100 mg/kg): 37 percentage of inhibition | percentage of inhibition (Cysteamine Duodenal Ulcer) ([8]; 250 mg/kg): 46 percentage of inhibition | percentage of inhibition (Cysteamine Duodenal Ulcer) ([8]; 500 mg/kg): 77 percentage of inhibition | percentage of healing (Acetic Acid Ulcer) ([4]; 100 mg/kg): 29 percentage of healing | percentage of healing (Acetic Acid Ulcer) ([4]; 250 mg/kg): 16 percentage of healing | percentage of healing (Acetic Acid Ulcer) ([4]; 500 mg/kg): 38 percentage of healing | Amount of Gastric Juice Secreted [5]: 3.3 ± 0.4 mL | Acidity of Gastric Juice [6]: 58.4 ± 11.7 mEq/l | Activity of Pepsin [7]: 5.0 ± 0.4 mg/mL | LD50 ([9]; Oral): > 5,000 mg/kg | LD50 ([9]; Subcutaneous): > 2,500 mg/kg | LD50 ([10]; Oral): > 5,000 mg/kg | LD50 ([10]; Subcutaneous): > 2,500 mg/kg
